Source: article PMC10731806, “Characterization of an iPSC-based barrier model for blood-brain barrier investigations using the SBAD0201 stem cell line” (Fluids and Barriers of the CNS, 2023)

Assays:
LAT-1 = molecular target: T1, LAT-1 (Homo sapiens, UniProt Q01650); assay: Apical-to-basolateral transport of [3H]-L-leucine with and without LAT-1 inhibitors; assay type: cell-based; details: [3H]-L-leucine 9.3 nM, A-B, HBSS+, one hour
T1 construct: endogenous in cells; host or cells: SBAD0201 hiPSC-derived brain capillary endothelial-like cells (BCECs)
Experimental: (§1) HBSS without glucose was used for transport assays involving [^3H]-glucose and 6-NBDG, whereas HBSS^+ was used for [^3H]-L-leucine. […] The function of GLUT-1 and LAT-1 were evaluated by co-application of the GLUT-1 inhibitors BAY876 (1 and 10 μM) and phloretin (100 μM) and the LAT-1 inhibitors JPH203 (10 μM) and BCH (100 μM). The inhibitors were added to the transport buffer in both chambers 15 min before the addition of the substrates.

P-gp = assay: Bidirectional transport and uptake of P-gp substrates with and without zosuquidar; details: for vectorial transport (bidirectional): EC-/- medium
GLUT1 = details: cited from earlier work
GLUT-1 = molecular target: T2, GLUT-1 (Homo sapiens, UniProt P11166); assay: Apical-to-basolateral transport of GLUT-1 substrates with and without GLUT-1 inhibitors; assay type: cell-based; details: A-B, glucose-free HBSS, one hour; for effect on apparent permeability of 6-NBDG: 6-NBDG 100 µM; for effect on apparent permeability of [^3H]-glucose: [3H]-glucose 20 nM
T2 construct: endogenous in cells; host or cells: SBAD0201 hiPSC-derived brain capillary endothelial-like cells (BCECs)
T2 sequence (P11166 1-492): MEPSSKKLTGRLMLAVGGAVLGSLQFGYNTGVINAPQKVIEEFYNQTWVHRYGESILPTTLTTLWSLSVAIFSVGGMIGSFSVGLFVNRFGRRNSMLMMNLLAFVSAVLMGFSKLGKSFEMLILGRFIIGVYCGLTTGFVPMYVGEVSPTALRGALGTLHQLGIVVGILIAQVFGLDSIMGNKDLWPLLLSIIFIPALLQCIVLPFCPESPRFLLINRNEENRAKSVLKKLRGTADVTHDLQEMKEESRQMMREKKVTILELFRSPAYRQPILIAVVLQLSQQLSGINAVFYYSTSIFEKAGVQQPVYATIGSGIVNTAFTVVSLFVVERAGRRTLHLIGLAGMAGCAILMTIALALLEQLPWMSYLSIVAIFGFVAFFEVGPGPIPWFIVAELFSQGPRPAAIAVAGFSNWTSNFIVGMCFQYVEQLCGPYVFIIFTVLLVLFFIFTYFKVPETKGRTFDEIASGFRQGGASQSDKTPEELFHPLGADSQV
Experimental: as §1

T1 sequence (Q01650 whole entry): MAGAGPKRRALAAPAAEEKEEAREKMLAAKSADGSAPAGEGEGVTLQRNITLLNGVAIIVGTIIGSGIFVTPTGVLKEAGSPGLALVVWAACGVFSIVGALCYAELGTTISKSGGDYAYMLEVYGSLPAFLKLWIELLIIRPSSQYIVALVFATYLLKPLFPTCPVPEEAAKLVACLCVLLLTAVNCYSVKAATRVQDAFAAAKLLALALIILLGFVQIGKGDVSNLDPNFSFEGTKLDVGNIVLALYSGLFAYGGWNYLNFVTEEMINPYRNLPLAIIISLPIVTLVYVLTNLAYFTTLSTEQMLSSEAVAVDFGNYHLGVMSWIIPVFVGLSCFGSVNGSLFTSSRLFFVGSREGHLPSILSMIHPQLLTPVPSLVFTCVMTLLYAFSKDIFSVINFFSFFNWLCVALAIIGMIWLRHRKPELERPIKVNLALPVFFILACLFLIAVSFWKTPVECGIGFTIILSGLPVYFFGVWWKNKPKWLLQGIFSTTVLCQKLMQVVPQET
T1 sequence (P08195 102-630 partner): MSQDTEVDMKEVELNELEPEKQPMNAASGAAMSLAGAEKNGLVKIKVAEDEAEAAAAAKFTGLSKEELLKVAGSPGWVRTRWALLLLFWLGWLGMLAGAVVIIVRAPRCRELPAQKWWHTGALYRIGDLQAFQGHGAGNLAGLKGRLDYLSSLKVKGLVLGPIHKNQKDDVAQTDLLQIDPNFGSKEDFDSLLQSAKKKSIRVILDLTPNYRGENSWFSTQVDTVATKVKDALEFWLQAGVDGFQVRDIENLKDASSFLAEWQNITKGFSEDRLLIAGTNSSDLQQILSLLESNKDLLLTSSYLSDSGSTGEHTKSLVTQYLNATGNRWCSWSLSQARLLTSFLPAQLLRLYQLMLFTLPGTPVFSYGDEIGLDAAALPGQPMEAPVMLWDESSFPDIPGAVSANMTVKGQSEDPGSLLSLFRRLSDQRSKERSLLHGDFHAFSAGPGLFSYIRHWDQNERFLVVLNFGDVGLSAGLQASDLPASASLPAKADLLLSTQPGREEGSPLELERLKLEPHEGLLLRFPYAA

## NC1(C(=O)O)CC2CCC1C2 (centres unmarked) [BCH]
LAT-1; BCH 100 µM
  effect on transport of [3H]-L-leucine: significantly decreased

## Nc1cc(COc2c(Cl)cc(C[C@H](N)C(=O)O)cc2Cl)c2oc(-c3ccccc3)nc2c1 [JPH203]
LAT-1; JPH203 10 µM
  effect on transport of [3H]-L-leucine: significantly decreased

## O[C@@H](COc1cccc2ncccc12)CN1CCN([C@@H]2c3ccccc3[C@@H]3[C@H](c4ccccc42)C3(F)F)CC1 [zosuquidar]
P-gp; zosuquidar 0.4 µM, both chambers, two hours
  effect on transport of rhodamine 123 and [3H]-digoxin: neither the transport nor the uptake of the substrates was affected
P-gp; zosuquidar 0.4 µM, uptake probed after the transport study
  effect on uptake of rhodamine 123 and [3H]-digoxin: neither the transport nor the uptake of the substrates was affected

## Cc1c(NC(=O)c2cc(C(N)=O)nc3cc(F)ccc23)c(C(F)(F)F)nn1Cc1ccc(C#N)cc1 [BAY876]
GLUT1
  selectivity for GLUT1 relative to GLUT2, GLUT3, GLUT4: at least 130 fold
GLUT-1; 10 µM BAY876
  effect on apparent permeability of 6-NBDG: sensitive to the addition
  effect on apparent permeability of [^3H]-glucose: sensitive to the addition

## O=C(CCc1ccc(O)cc1)c1c(O)cc(O)cc1O [phloretin]
GLUT-1; 100 µM phloretin
  effect on apparent permeability of 6-NBDG: sensitive to the addition
  effect on apparent permeability of [^3H]-glucose: sensitive to the addition

## COC(=O)c1ccccc1-c1c2ccc(=N)cc-2oc2cc(N)ccc12 [rhodamine 123]
P-gp; rhodamine 123 5 µM, two hours
  vectorial transport (bidirectional): No vectorial transport

## C[C@H]1O[C@@H](O[C@H]2[C@@H](O)C[C@H](O[C@H]3[C@@H](O)C[C@H](O[C@H]4CC[C@@]5(C)[C@H](CC[C@@H]6[C@@H]5C[C@@H](O)[C@]5(C)[C@@H](C7=CC(=O)OC7)CC[C@]65O)C4)O[C@@H]3C)O[C@@H]2C)C[C@H](O)[C@@H]1O [[^3H]-digoxin, digoxin]
P-gp; [3H]-digoxin 38.2 nM, two hours
  vectorial transport (bidirectional): No vectorial transport
